The subject of assay [1] is ES2 (human ovarian cancer) xenograft tumor. Briefly: Genesis of blood vessels in xenograft tumor treated with compound Y. Type of assay: in vivo, Athymic Nu/Nu mice. The following applies: ES2 i.p. xenograft, 2.5 mg/kg i.p. daily days 10-15 and 18-22, H&E sections. The method, then:
Method: Athymic Nu/Nu mice (5-6 weeks old) are divided into two groups (1 and 2) with 5 animals in each group. On day 0, all mice were transplanted intra-peritoneally with one million ES2 (human ovarian cancer) cells. Animals were randomly divided into two groups:
Group 2: Drug-treatment group. On days 10-15 and 18-22, animals received daily drug administration of Xanifolia-Y, by i.p. route at dosage of 2.5 mg/kg.
Animals with high tumor burden were euthanized and solid tumors were taken out from these mice (between 18-27 days). Tumor tissues fixed with formalin at room temperature. The fixed tissues were sectioned and stained with Haematoxylin and eosin (H&E). The red blood cells inside the micro blood vessels were identified under a microscope.

In assay [2] the test system is Fibronectin. Briefly: Fibronectin secretion, skin SK-MEL-5 cells. Type of assay: cell-based, human. Conditions: Homo sapiens, SK-MEL-5; skin SK-MeI-5 cells; 20 ug/ml. Here is the method:
Reduction of Fibronectin secretion from ES2 cells after xanifolia-Y treatment. • (Results of F1, F3, F4, F5, F7, F8, F11, F12A, F15, F16, F17) Data in PCT/US2008/002086, 1188-ALA-PCT, filed Feb. 15, 2008 are incorporated herein by reference • (F11) For lung carcinoma cells (H460), at concentration of 20 ug/ml, there are inhibitions of Fibronectin secretion ranged from 20-60%. • (F12A) For bladder carcinoma cells (HTB-9), Xanifolia-Y (10 ug/ml) inhibits 50% of Fibronectin secretion. • (F15) In liver HepG2 cells. 10 ug/ml of xanifolia-Y inhibits 42% secretion of Fibronectin. • (F16) Incubation of brain glioblastoma T98G cells with 10 ug/ml of xanifolia-Y inhibits 27% Fibronectin secretion and with 20 ug/ml Y inhibits 74% Fibronectin secretion. • (F17) For skin SK-MeI-5 cells, the inhibition is 40-57% with 20 ug/ml of Xanifolia-Y.

Assay [3] deals with angiopoietin-like 4. Put plainly: Microarray gene expression in ES2 cells: angiopoietin-like 4. Type of assay: cell-based, human. The following applies: micro array. From the text: (§1) The composition comprises bioactive compounds from natural plants or synthesis. The majority of the plants are from the Sapindaceae family, which has 140-150 genera with 1400-2000 species. The program is based on our purification methods and biological assays including the MTT assay See International Application No. PCT/US05/31900, filed Sep. 7, 2005, U.S. Ser. No. 11/289,142, filed Nov. 28, 2005, and U.S. Ser. No. 11/131,551, filed May 17, 2005, and PCT/US2008/002086, 1188-ALA-PCT, filed Feb. 15, 2008, the contents of which are incorporated herein by reference. The details of Analysis of gene expression of ES2 cells after Y-treatment by Microarray, Data Analysis Methods and Western blot in PCT/US2008/002086, 1188-ALA-PCT, filed Feb. 15, 2008, the contents of which are incorporated herein by reference
Angiogenesis is a process involving the growth of new blood vessels. It is a normal process in growth and development. However, this is also a fundamental step in the transition of tumors from a dormant state to a malignant state. The angiopoietins are protein growth factors that modulate angiogenesis. […]

The subject of assay [4] is insulin-like growth factor binding protein 3 (IGFBP3). Put plainly: Microarray gene expression in ES2 cells: IGFBP3. Type of assay: cell-based, human.
Description: as §1

For assay [5], the system named is Glypican 6 (GPC6). Briefly: Microarray gene expression in ES2 cells: Glypican. Type of assay: cell-based, human.
Description: as §1

In assay [6] the test system is dual specificity phosphatase 10 (DUSP10). Put plainly: Microarray gene expression in ES2 cells: DUSP10. Type of assay: cell-based, human.
Description: as §1

Assay [7] has as its system COL1A1 (collagen type 1 alpha 1). Put plainly: Gene expression by Real-time PCR: COL1A1. Type of assay: cell-based. Conditions: control = 100. In general terms: Quantitative PCR measures a nucleic acid by following its amplification.
Assay [8] has as its system LIF (Leukemia inhibitory factor). Put plainly: Gene expression by Real-time PCR: LIF. Type of assay: cell-based. The following applies: DMSO control = 100. From the text: (§2) Determination of gene expression by Real-time PCR method (Brilliant QPCR, Agilent Technologies): The real-time polymerase chain reactions further confirm the results obtained from micro array analysis. The Real-time PCR results (shown below) confirmed that Compound Y3 and YM increase the expression of the genes: ANGPT2, DDIT3, LIF and NFKB1Z

Assay [9] concerns protein phosphatase 1, regulatory (inhibitor) subunit 15A (PPP1R15A). Briefly: Microarray gene expression in ES2 cells: PPP1R15A. Type of assay: cell-based, human.
Description: as §1

Assay [10] has as its system tumor bearing mice. Briefly: Animal studies in tumor bearing mice. Type of assay: in vivo. An excerpt: (Reference Experiments 7, 8, 9 in U.S. Ser. Nos. 11/683,198, filed on Mar. 7, 2007,). The animals died sooner if the treatment of Xanifolia-Y was delayed (comparing results of treatments started from 1, 4 or 10 days after tumor inoculation). […] Ovarian carcinoma cells express high levels of adhesion molecules. Adhesion proteins are present in both cancer cells and mesothelial cells. While the lost of adhesion blocks of the protein accessibility due to a result of modulating by Xanifolia-Y, In an embodiment, the interaction of Xanifolia-Y with membrane alter the adhesion protein's binding site(s).

In assay [11] the test system is insulin-like growth factor binding protein 1 (IGFBP1). Briefly: Microarray gene expression in ES2 cells: IGFBP1. Type of assay: cell-based, human. The following applies: probe set 205302_at.
Description: as §1

Assay [12] has as its system TNC (Tenascin C). Briefly: Gene expression by Real-time PCR: TNC. Type of assay: cell-based. Conditions: control = 100.
Description: as §2

As usually defined, the inhibition is the percentage by which the read-out fell short of the control.

As for `C/C=C(/C)C(=O)O[C@H]1[C@H](OC(=O)/C(C)=C\C)[C@@]2(CO)C(CC1(C)C)C1=CCC3[C@@]4(C)CC[C@H](O[C@@H]5OC(C(=O)O)[C@@H](O)[C@@H](O[C@@H]6O[C@@H](CO)[C@@H](O)C6O)C5O[C@@H]5OC(CO)[C@H](O)[C@@H](O)C5O)C(C)(C)C4CC[C@@]3(C)[C@]1(C)[C@@H](O)[C@H]2O` (stereo partly drawn) [Y, 3-O-[β-D-galactopyranosyl(1→2)]-α-L-arabinofuranosy (1→3)-β-D-glucuronopyranosyl-21,22-O-diangeloyl-3β, 15α, 16α, 21β, 22α, 28-hexahydroxyolean-12-ene], the “blood vessels in tumor sections” value in assay [1] (listed as Xanifolia Y) was “More blood vessels were observed in the control Group 1 than those in the drug-treated Group 2”; in assay [1] (listed as Xanifolia-Y) it was “more blood vessels were observed in the control Group1 than those in the drug-treated Group 2”. Moreover, the inhibition at 20 µg/mL in assay [2] was in the range of 40 to 57%. The “gene expression of angiopoietin-like 4” value in [3] is on record as “inhibit”. Also, the “IGFBP3 expression, treated/D (DMSO control)” value in assay [4] (probe set 210095_s_at) was −4.0; in [4] (probe set 212143_s_at), −3.7. In addition, the “GPC6 expression, treated/D (DMSO control)” value in [5] (probe set 227059_at) is −2.2; in [5] (probe set 243865_x_at), −2.7. For the same molecule, the “DUSP10 expression (given as Y/D, YM/D)” value in assay [6] (215501_s_at) is reported as 3.2; in [6] (221563_at) it was 3.8. Further, in assay [7], the “COL1A1 expression, % of control” value was 49.9 % of control. The “LIF expression, % of control” value in assay [8] is 163 % of control. Further, the figures for the “PPP1R15A expression (given as Y/D, YM/D)” value in [9] (37028_at) and in assay [9] (202014_at) were 2.4 and 2.6, respectively. In addition, in assay [10] (Experiments 7, 8, 9 of U.S. Ser. No. 11/683,198), the “life span of tumor bearing mice” value was “extended the life span”. In addition, in [10] (treatment started 1, 4 or 10 days after tumor inoculation), the “migration or metastasis of the inoculated cancer cells” value is on record as “inhibits migration or metastasis”. Moreover, the “IGFBP1 expression, treated/D (DMSO control)” value in assay [11] is given as −1.7. For the same molecule, the “TNC expression, % of control” value in assay [12] was 41.1 % of control.

(Values after patent US8586719B2, “Triterpenes for modulating gene expression and cell membrane, and as antiprotozoal agents” (Pacific Arrow Limited, priority 2005, dated 2013).)
